# Measured values taken from patent publication US4539208A, “Combination of thienamycin-type antibiotics with dipeptidase inhibitors” (Merck & Co., Inc., priority 1981, dated 1985).
# Biological target: T1, renal dipeptidase (E.C.3.4.13.11) (Sus scrofa, UniProt P22412)
# T1 construct: solubilized preparation of dipeptidase isolated from hog kidneys; from tissue; host or cells: hog (pig) kidney
# T1 sequence (P22412 17-409): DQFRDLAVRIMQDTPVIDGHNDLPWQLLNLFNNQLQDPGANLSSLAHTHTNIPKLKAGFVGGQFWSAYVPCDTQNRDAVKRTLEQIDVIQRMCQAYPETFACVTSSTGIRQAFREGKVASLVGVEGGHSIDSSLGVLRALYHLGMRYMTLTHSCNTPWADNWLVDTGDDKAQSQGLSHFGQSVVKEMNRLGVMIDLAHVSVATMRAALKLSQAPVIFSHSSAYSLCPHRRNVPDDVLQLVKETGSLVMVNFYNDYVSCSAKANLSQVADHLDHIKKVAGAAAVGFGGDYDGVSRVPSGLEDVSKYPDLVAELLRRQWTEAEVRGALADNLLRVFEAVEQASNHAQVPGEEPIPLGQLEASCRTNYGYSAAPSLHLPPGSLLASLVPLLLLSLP
# Experiment: Inhibition of GDP (glycyldehydrophenylalanine) hydrolysis by solubilized renal dipeptidase
# Format: biochemical, hog (pig) kidney
# Details: not given
# Protocol: This measured the ability of compounds to inhibit hydrolysis of glycyldehydrophenylalanine (GDP) by a solubilized preparation of dipeptidase isolated from hog kidneys. The procedure is as follows: to a 1 ml. system containing 50 mM "MOPS" (3-(N-morpholino)propanesulfonic acid) buffer, pH 7.1, is added 5 μg of lyophilized enzyme, and the test compound at a final concentration of 0.1 mM. After a five minute incubation at 37° C., GDP is added to a final concentration of 0.05 mM. Incubation is continued for 10 minutes, at 37° C. and hydrolysis of GDP is measured by the change in optical density with time at 275 nm. Inhibition of the enzyme is gauged by comparison to a standard run containing no inhibitor and is expressed as the inhibitor binding constant, Ki.
# A 1 ml. system of 50 mM "MOPS" buffer, pH 7.1, is used. To this is added 5 μg of the pig renal enzyme and an amount of the test compound to bring its final concentration to 0.1 mM. After a five minute incubation at 37° C., an amount of GDP is added to bring its final concentration to 0.05 mM. The system is again incubated for 10 minutes, at 37° C. Hydrolysis of GDP is measured by its change in optical density with time at 275 nm. Inhibition of the enzyme is gauged by comparison to a standard run containing no inhibitor and is presented as percent inhibition.
row,Ki [µM],SMILES
1,9,"C/C=C(\NC(=O)C1CC1)C(=O)O [Compound 10, Z-2-cyclopropylcarboxamido-2-butenoic acid]"
2,0.059,CCCCC/C=C(\NC(=O)C1CC1(Cl)Cl)C(=O)O (centres unmarked) [Compound 12]
3,0.89,CN(C)C(=N)NCCCCC/C=C(\NC(=O)C1CC1(C)C)C(=O)O (centres unmarked) [Compound 16]
4,39,"C/C=C(\NC(=O)CCCCC)C(=O)O [Compound 28, Z-2-hexanamido-2-butenoic acid]"

# Same assay, conditions: 10^-4 M inhibitor; GDP 0.05 mM; pH 7.1; 37° C.
inhibition at 100 µM [%],% Inhibition at 10^-4 M [%],SMILES
98,,"C/C=C(\NC(=O)C1CC1(C)C)C(=O)O (racemic) [Compound 2, Z-2-(2,2-dimethylcyclopropanecarboxamido)-2-butenoic acid]"
99,,CC1(C)CC1C(=O)N/C(=C\CCCC(=O)O)C(=O)O (racemic) [Compound 64]
100,,"C/C=C(\NC(=O)C1CC1(C)C)C(=O)O (single isomer, unassigned; (+)) [Compound 2a, (+)-Z-2-(2,2-dimethylcyclopropanecarboxamido)-2-butenoic acid]"
,98,CC/C=C(\NC(=O)C1CC1(C)C)C(=O)O (centres unmarked) [Compound 1]
92,,C/C=C(\NC(=O)C1CC1C)C(=O)O (centres unmarked) [Compound 3]
87,,CC/C=C(\NC(=O)CC(C)C)C(=O)O [Compound 4]
81,,C/C=C(\NC(=O)CC(C)CC(C)(C)C)C(=O)O (centres unmarked) [Compound 5]
83,,C/C=C(\NC(=O)C1C(C)C1C)C(=O)O (centres unmarked) [Compound 6]
80,,C/C=C(\NC(=O)C1CCC1)C(=O)O [Compound 8]
83,,C/C=C(\NC(=O)CC1CCC1)C(=O)O [Compound 9]
97,,"C/C=C(\NC(=O)C1CC1)C(=O)O [Compound 10, Z-2-cyclopropylcarboxamido-2-butenoic acid]"
82,,C/C=C(\NC(=O)CC(C)CC)C(=O)O (centres unmarked) [Compound 11]
75,,"C/C=C(\NC(=O)CC(C)(C)C)C(=O)O [Compound 18, Z-2-t-butylacetamido-2-butenoic acid]"
72,,"C/C=C(\NC(=O)CCCCCCC)C(=O)O [Compound 19, Z-2-octanamido-2-butenoic acid]"
69,,"C/C=C(\NC(=O)CCC)C(=O)O [Compound 20, Z-2-butyramido-2-butenoic acid]"
68,,C/C=C(\NC(=O)CCCC1CCCCC1)C(=O)O [Compound 21]
64,,C/C=C(\NC(=O)CC1CC1)C(=O)O [Compound 22]
64,,"C/C=C(\NC(=O)CCCC)C(=O)O [Compound 23, Z-2-valeramido-2-butenoic acid]"
59,,C/C=C(\NC(=O)C1CCCC1)C(=O)O [Compound 24]
57,,"C/C=C(\NC(=O)CCCCC(C)C)C(=O)O [Compound 25, Z-2-(6-methylheptanamido)-2-butenoic acid]"
56,,C/C=C(\NC(=O)CCC1CCCC1)C(=O)O [Compound 26]
54,,C/C=C(\NC(=O)CCC1CCCCC1)C(=O)O [Compound 27]
54,,"C/C=C(\NC(=O)CCCCC)C(=O)O [Compound 28, Z-2-hexanamido-2-butenoic acid]"
49,,C/C=C(\NC(=O)CCCCCC)C(=O)O [Compound 29]
33,,"C/C=C(\NC(=O)C(CC)CCCC)C(=O)O (centres unmarked) [Compound 30, Z-2-(2-Ethylhexanamido)-2-butenoic acid]"
13,,"C/C=C(\NC(=O)C(CCC)CCC)C(=O)O [Compound 31, Z-2-di-n-propylacetamido-2-butenoic acid]"
31,,C/C=C(\NC(=O)C(C)C)C(=O)O [Compound 32]
90,,O=C(O)CC/C=C(\NC(=O)C1CC1)C(=O)O [Compound 33]
88,,C/C=C(\NC(=O)CC(C)CCOC)C(=O)O (centres unmarked) [Compound 34]
70,,C/C=C(\NC(=O)CCCCCBr)C(=O)O [Compound 35]

# Same assay, conditions: racemate resolved; dextrorotatory isomer has S-configuration
row,SMILES,activity of resolved isomers
1,"CCCCC/C=C(\NC(=O)C1CC1(C)C)C(=O)O (racemic) [Z-2-(2,2-dimethylcyclopropanecarboxamido)-2-octenoic acid]",The activity resides in the dextrorotatory isomer
